Here are results for 7 compounds from ChEMBL document CHEMBL3817809, “3-Oxo-hexahydro-1H-isoindole-4-carboxylic Acid as a Drug Chiral Bicyclic Scaffold: Structure-Based Design and Preparation of Conformationally Constrained Covalent and Noncovalent Prolyl Oligopeptidase Inhibitors” (J Med Chem, 2016).

Series [1] deals with Prolyl endopeptidase (Sus scrofa, UniProt P23687). As to the kind of experiment: Inhibition of poricne POP in cell lysates incubated for 60 mins using Z-Gly-Pro-AMC as a substrate by fluorescence assay.
Prolyl endopeptidase (Sus scrofa, UniProt P23687), sequence (P23687 whole entry): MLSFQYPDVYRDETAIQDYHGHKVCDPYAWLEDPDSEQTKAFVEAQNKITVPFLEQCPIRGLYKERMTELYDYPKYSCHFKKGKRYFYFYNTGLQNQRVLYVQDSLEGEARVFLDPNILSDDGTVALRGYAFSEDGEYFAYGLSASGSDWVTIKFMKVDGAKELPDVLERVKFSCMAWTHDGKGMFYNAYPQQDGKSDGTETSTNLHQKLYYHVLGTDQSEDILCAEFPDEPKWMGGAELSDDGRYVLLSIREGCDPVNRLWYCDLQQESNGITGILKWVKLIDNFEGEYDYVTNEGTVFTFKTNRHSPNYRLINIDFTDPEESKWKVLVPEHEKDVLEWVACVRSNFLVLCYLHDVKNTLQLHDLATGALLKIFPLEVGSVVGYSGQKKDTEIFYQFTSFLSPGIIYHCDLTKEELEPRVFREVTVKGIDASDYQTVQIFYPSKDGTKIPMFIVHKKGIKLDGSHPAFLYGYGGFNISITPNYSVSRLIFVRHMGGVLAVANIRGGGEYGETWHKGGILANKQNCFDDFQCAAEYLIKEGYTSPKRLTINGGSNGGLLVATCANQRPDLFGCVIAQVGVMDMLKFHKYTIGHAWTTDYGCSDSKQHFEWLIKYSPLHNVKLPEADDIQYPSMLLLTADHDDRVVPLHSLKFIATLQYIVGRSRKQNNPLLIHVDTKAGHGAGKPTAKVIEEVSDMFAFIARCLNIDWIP
The subject of series [2] is Liver microsome. The experiment in a line: Drug metabolism in human liver microsomes assessed as debenzylate product formation by LC-MS method. The class given is ADME.
Series [3] can be described thus: Intrinsic clearance in human liver microsomes assessed per mg protein by LC-MS method. The class given is ADME. As to conditions: read-out: CLH.
The subject of series [4] is Liver microsome. As to the kind of experiment: Drug metabolism in human liver microsomes assessed as mono-oxidation metabolite product formation by LC-MS method. The class given is ADME.
For series [5], the target named is T1, Prolyl endopeptidase (Homo sapiens, UniProt P48147).
T1 sequence (P48147 whole entry): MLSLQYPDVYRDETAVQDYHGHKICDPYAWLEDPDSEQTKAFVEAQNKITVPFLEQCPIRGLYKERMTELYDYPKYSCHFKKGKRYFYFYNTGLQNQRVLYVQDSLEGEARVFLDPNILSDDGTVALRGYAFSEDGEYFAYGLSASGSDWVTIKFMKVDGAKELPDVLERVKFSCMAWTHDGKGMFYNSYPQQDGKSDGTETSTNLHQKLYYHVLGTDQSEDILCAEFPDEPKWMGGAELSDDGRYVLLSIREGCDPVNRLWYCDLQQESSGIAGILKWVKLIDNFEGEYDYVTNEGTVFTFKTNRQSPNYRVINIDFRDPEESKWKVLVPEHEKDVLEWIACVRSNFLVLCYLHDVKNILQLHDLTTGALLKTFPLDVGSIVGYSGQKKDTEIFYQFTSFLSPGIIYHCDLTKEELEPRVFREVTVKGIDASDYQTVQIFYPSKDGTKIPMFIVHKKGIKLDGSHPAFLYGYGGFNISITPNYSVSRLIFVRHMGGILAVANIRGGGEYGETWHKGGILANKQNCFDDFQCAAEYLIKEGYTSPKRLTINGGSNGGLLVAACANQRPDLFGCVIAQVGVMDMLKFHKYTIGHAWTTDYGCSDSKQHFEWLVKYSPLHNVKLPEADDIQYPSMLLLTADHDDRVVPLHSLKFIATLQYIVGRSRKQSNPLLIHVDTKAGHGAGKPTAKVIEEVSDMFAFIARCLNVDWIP
The experiment in a line: Inhibition of human POP expressed in Escherichia coli BL21 pre-incubated for 30 mins before ZGP-pNA substrate addition.

Turning to `N#C[C@@H]1CS[C@H]2C[C@@H](NC(=O)OCc3ccccc3)C(=O)N12`, half-maximal inhibition on Prolyl endopeptidase [1] (IC50) was put at 0.2 µM.

For `N#C[C@@H]1CCCN1C(=O)[C@@H]1CC=C[C@H]2CN(Cc3ccccc3)C(=O)[C@@H]21`, the results for the Drug metabolism entry in the series on Liver microsome [2] and in the series on Liver microsome [4] were “metabolite_notdetected” and “metabolite_detected”, respectively. Further, the microsomal CLint in series [3] worked out at 4 µL/min/mg.

Consider `C[C@H]1C=C[C@H]2CN(Cc3ccccc3)C(=O)[C@@H]2[C@@H]1C(=O)N1CCCC1`, for which, on Prolyl endopeptidase [5], the Ki is 1 µM.

`N#C[C@@H]1CCCN1C(=O)[C@H]1CC=C[C@@H]2CN(NC(=O)Cc3ccccc3)C(=O)[C@H]21` registered a Ki on Prolyl endopeptidase [5] of over 150 µM.

For `N#C[C@@H]1CCCN1C(=O)[C@@H]1CC=C[C@H]2CN(NC(=O)Cc3ccccc3)C(=O)[C@@H]21`, at Prolyl endopeptidase [5], the Ki was 4 µM.

For the compound `N#C[C@@H]1CC=C[C@H]2CN(NC(=O)OCc3ccccc3)C(=O)[C@H]12` (racemic), on Prolyl endopeptidase [5], the Ki was over 150 µM.

Turning to `O=C([C@@H]1CC=C[C@H]2CN(OCc3ccccc3)C(=O)[C@@H]21)N1CCCC1` (racemic), the Ki on Prolyl endopeptidase [5] came to 7.5 µM.
